Test results: patent US6444251B1, “Sweetener compositions containing aspartame and aspartame derivative” (Ajinomoto Co., Inc., priority 1997, dated 2002)
Residues, ends and D or L forms follow the SMILES beside them.

Columns and labels:
[1] = cited from earlier work; for sweetening potency: relative to sucrose
[2] = Quality of sweetness (early taste, later taste, astringency) in comparison to sucrose; settings: for early taste / later taste: determined in comparison to sucrose
Protocol: Early taste and late taste are determined in comparison to sucrose. For example, a sweetener, when put in the mouth, can taste sweet as early as sucrose or later than sucrose.

Row | SMILES | sweetening potency [1] | early taste [2] | later taste [2] | sweetening potency (in words) ([1]; as shown in French Patent No. 2697844) | astringency (astringent taste) [2] | quality of sweetness ([2]; compared to sucrose / single ingredients)
1 | COC(=O)[C@H](Cc1ccccc1)NC(=O)[C@@H](N)CC(=O)O [APM, aspartame] (H-Asp-Phe-OMe) | about 200 times that of sucrose | weak in early taste | strong in later taste |  |  | 
2 | COC(=O)[C@H](Cc1ccccc1)NC(=O)[C@H](CC(=O)O)NCCC(C)(C)C [N-(3,3-dimethylbutyl)-APM, N-[N-(3,3-dimethylbutyl)-L-α-aspartyl]-L-phenylalanine methyl ester] | 10,000 times that of sucrose | extremely weak | extremely strong | markedly improved sweetening potency | strong in astringency | badly balanced
